According to publication PMC7698016 (Metabolites, 2020):

Biological target: T1, AKR1C3 (aldo-keto reductase 1C3) (Homo sapiens, UniProt P42330)
T1 construct: human recombinant enzyme expressed in E. coli (Novus NBC1-21051)
Test: Km by real-time NADPH fluorescence ([…]); GC-QToF gave Km […]
Type: biochemical

T1 sequence (P42330 whole entry): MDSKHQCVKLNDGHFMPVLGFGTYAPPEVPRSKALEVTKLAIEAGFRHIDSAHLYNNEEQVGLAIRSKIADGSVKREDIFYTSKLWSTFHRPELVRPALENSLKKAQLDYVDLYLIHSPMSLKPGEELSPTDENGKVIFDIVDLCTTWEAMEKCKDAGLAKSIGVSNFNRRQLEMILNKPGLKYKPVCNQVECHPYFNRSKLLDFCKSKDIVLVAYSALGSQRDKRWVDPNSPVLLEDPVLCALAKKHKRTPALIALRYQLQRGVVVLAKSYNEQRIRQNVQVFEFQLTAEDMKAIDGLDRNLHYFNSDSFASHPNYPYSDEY

`C[C@]12CC[C@@H](O)C[C@H]1CC[C@@H]1[C@@H]2CC[C@]2(C)C(=O)CC[C@@H]12` [D, 3α-hydroxy-5β-androstan-17-one] showed a Km of 9.7 µM.
